Data set [1] deals with T1, hBCRP (Homo sapiens, UniProt Q9UNQ0).
T1 construct: purchased GenoMembrane Inc. (Yokohama, Japan); host or cells: Sf9 cells
T1 sequence (Q9UNQ0 1-655): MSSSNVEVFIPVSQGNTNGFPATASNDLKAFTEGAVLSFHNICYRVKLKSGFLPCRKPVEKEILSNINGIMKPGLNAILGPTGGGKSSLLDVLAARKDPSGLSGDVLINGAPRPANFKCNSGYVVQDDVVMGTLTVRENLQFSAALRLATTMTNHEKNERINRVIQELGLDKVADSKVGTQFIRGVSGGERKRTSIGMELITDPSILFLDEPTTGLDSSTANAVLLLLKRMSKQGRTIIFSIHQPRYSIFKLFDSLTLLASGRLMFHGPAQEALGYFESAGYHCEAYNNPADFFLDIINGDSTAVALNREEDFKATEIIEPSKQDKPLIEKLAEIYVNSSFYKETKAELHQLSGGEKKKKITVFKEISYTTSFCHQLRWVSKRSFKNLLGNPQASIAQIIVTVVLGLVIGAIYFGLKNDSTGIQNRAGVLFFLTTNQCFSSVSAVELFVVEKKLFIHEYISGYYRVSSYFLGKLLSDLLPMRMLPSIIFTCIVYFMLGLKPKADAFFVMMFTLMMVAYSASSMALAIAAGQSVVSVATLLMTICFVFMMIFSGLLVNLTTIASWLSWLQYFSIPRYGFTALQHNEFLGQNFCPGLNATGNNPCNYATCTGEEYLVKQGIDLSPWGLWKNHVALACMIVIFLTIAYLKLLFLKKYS
Nature of the data set: [14C]uric acid uptake by hBCRP-expressing membrane vesicles. It is filed as biochemical. The settings on record: [14C]uric acid 20 µM, 5 min, 37°C, 4 mM ATP or AMP. Here is the method: (§1) hBCRP/rBcrp, hMRP2/rMrp2, or hMDR1-expressing membrane vesicles prepared from Sf9 cells were purchased from GenoMembrane Inc. (Yokohama, Japan). Uptake experiments were conducted as described previously. Briefly, after a pre-incubation for 5 min at 37°C, membrane vesicles (50 µg protein/50 µL final reaction volume) were incubated for 5 min at 37°C in the presence of 4 mM ATP or AMP in assay buffer (1 M KCl, 1 M MgCl2, and 100 mM MOPS-Tris, pH 7.0) containing [^14C]uric acid (1 µCi/mL). The uptake reaction was terminated by adding 1 mL ice-cold washing buffer (1 M KCl, and 100 mM MOPS-Tris, pH 7.0) to the membrane solution, and the mixture was rapidly filtered through a nitrocellulose filter (0.45 µm pore size, Millipore, Bedford, MA). The filters were washed twice with 5 mL ice-cold washing buffer. The filters were dried and dissolved in Clearsol-I for quantitation of radioactivity.

The next data set has as its target T2, hMRP2 (Homo sapiens, UniProt Q92887).
T2 construct: purchased GenoMembrane Inc. (Yokohama, Japan); host or cells: Sf9 cells
Nature of the data set: [14C]uric acid uptake by hMRP2-expressing membrane vesicles. The data set is classed as biochemical. The settings on record: [14C]uric acid 20 µM, 5 min, 37°C, 4 mM ATP or AMP. The protocol: as §1

A further data set concerns the target T3, rBcrp (Rattus norvegicus, UniProt Q80W57).
T3 sequence (Q80W57 1-657): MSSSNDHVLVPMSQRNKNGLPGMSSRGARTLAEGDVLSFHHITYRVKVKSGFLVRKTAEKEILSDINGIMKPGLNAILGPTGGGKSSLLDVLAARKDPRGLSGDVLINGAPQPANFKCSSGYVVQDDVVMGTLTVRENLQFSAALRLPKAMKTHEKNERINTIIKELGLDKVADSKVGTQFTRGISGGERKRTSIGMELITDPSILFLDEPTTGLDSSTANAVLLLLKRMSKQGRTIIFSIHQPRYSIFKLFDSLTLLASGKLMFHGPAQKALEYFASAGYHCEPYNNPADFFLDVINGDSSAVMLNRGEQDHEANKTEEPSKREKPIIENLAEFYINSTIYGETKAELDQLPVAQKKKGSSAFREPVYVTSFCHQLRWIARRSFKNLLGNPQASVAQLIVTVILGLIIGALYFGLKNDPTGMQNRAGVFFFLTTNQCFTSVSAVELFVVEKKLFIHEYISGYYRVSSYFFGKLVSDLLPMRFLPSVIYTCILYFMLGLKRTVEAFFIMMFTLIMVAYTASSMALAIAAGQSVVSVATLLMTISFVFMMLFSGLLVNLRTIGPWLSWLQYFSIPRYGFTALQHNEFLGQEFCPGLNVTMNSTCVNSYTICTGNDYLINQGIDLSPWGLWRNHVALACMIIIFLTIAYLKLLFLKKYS
Nature of the data set: [14C]uric acid uptake by rBcrp-expressing membrane vesicles. It is filed as biochemical. Further details: purchased GenoMembrane Inc. (Yokohama, Japan); host or cells: Sf9 cells. The protocol:
as §1

In data set [2] the target is T1, hBCRP. Details: method as in PMID 20368174. The settings on record: read-out: Km of uric acid to hBCRP; cited from earlier work.
Another data set concerns the target T4, hMDR1 (Homo sapiens, UniProt P08183).
T4 construct: purchased GenoMembrane Inc. (Yokohama, Japan); host or cells: Sf9 cells
The data set is described as follows: [14C]uric acid uptake by hMDR1-expressing membrane vesicles. It is filed as biochemical. The conditions noted are these: [14C]uric acid 20 µM, 5 min, 37°C, 4 mM ATP or AMP. Here is the method: as §1

The target of another data set is T5, rMdr1a (Rattus norvegicus, UniProt Q6PSM0).
T5 construct: expressed in transfected cells; host or cells: LLC-PK1 cells
T5 sequence (Q6PSM0 1-1272): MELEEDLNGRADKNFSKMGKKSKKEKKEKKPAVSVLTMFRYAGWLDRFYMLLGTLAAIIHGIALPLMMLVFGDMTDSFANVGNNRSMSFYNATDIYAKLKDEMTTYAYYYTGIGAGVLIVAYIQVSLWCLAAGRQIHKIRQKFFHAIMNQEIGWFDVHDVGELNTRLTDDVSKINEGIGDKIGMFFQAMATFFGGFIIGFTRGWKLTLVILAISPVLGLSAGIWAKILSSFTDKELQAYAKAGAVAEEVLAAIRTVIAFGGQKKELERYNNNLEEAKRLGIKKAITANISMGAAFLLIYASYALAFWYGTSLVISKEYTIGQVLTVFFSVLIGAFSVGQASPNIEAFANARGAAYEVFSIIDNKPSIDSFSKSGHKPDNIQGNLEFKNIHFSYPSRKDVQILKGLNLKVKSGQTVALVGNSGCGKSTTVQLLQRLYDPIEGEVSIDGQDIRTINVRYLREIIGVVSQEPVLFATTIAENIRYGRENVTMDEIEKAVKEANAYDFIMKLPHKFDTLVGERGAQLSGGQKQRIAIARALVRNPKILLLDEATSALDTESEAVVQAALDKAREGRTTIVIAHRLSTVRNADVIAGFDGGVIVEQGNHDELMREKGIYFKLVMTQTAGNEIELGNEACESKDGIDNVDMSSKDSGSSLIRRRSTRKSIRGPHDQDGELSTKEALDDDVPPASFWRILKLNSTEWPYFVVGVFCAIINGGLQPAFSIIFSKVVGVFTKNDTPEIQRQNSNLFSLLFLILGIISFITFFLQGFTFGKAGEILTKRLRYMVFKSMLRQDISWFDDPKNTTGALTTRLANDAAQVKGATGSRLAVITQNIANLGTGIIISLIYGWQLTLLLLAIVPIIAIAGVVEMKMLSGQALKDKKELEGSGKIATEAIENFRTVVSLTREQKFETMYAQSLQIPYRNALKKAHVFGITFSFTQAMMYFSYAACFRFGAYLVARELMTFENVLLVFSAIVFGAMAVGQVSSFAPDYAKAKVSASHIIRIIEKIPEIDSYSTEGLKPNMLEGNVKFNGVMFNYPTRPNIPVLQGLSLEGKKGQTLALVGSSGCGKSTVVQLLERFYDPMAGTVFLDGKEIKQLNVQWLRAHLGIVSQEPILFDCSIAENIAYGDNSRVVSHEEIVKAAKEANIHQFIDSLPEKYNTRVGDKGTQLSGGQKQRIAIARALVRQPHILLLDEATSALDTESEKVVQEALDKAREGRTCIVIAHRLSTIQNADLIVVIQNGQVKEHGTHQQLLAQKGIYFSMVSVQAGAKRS
Nature of the data set: Bidirectional transport of uric acid in LLC-PK1 cells expressing rMdr1a. It is filed as in vitro ADME. The conditions noted are these: data not shown.

T4 sequence (P08183 whole entry): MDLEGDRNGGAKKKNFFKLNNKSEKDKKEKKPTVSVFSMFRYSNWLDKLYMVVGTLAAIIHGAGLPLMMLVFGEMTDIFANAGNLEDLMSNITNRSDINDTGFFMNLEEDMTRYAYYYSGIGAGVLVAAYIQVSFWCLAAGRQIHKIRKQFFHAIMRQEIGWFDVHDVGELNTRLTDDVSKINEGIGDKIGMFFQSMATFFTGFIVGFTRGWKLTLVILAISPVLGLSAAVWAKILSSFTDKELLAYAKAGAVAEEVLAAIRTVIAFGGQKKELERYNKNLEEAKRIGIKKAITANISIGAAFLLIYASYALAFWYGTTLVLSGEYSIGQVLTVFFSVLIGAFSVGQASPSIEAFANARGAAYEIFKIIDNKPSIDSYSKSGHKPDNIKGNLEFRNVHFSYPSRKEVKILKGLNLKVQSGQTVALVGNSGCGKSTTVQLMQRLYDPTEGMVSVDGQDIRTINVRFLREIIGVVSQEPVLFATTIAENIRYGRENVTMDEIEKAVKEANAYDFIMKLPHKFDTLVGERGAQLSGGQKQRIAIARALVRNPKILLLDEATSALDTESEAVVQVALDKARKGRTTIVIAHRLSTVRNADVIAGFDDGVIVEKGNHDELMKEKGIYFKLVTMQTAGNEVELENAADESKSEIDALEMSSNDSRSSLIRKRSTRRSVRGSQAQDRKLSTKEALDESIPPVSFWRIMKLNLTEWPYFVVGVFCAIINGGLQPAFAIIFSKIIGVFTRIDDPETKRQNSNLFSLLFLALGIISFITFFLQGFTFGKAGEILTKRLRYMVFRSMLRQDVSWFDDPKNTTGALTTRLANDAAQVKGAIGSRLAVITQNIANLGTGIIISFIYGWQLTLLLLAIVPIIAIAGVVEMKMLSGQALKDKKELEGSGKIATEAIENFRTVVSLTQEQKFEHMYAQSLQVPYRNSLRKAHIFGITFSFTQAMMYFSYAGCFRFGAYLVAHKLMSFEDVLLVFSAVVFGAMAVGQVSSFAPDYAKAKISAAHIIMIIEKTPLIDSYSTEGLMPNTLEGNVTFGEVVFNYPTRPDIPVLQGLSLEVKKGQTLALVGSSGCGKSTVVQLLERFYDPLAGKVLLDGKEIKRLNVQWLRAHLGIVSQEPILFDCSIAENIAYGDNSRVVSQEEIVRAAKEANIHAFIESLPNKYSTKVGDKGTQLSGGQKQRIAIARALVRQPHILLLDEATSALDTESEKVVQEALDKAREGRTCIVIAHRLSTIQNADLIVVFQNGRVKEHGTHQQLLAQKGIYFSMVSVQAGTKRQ
T2 sequence (Q92887 whole entry): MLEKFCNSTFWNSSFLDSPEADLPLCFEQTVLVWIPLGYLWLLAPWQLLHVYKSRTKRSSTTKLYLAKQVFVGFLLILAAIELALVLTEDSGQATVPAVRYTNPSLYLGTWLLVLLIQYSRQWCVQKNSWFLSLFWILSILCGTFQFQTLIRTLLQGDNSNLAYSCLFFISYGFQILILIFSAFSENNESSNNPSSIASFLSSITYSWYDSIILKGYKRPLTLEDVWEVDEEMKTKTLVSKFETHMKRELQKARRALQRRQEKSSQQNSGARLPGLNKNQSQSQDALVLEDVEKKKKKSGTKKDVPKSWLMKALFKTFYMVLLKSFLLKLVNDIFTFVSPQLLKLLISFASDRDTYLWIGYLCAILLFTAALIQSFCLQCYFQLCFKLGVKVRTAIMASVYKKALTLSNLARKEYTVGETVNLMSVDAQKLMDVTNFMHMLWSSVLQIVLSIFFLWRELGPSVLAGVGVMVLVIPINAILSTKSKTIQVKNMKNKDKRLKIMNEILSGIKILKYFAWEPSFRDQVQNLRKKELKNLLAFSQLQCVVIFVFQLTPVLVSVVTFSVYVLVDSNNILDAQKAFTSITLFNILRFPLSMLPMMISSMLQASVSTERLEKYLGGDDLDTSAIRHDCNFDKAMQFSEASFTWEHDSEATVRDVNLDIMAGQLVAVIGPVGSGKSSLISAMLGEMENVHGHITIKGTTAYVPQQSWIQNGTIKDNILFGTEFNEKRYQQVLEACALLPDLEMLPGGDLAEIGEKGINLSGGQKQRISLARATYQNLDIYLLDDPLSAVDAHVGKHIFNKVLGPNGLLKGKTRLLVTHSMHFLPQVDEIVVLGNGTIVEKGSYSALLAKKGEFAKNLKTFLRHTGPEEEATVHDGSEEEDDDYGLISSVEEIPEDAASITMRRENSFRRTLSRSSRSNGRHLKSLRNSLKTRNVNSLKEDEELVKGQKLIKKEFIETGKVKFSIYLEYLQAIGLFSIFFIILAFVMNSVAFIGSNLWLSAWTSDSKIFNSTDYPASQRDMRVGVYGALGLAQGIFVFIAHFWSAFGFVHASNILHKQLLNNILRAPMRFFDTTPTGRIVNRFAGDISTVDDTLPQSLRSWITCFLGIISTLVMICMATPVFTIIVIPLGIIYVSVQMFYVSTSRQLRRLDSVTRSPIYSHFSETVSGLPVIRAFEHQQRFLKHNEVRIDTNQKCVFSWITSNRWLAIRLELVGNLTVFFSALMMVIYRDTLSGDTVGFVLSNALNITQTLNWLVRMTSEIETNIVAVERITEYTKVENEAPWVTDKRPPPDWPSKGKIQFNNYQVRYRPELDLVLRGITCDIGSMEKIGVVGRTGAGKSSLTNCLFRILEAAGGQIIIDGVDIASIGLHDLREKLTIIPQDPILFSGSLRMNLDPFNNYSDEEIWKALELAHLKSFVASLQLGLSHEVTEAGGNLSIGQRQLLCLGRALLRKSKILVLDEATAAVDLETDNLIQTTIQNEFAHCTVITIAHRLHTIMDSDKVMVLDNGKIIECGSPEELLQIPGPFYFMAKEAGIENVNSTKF

As usually defined, the Km is the concentration of substrate that gives half-maximal velocity. With `O=c1[nH]c(=O)c2[nH]c(=O)[nH]c2[nH]1` [uric acid], the “Uptake of uric acid in the presence of ATP versus AMP” value at hBCRP [1] is given as “significantly higher”; on rBcrp ([14C]uric acid 20 µM, 5 min, 37°C, 4 mM ATP or AMP) it was “significantly higher”. Also, the “ATP-dependent uric acid uptake” value on hMRP2 and on hMDR1 was “inactive” throughout. In addition, the “Vmax of uric acid transport by rBcrp” value on rBcrp (ATP-dependent uptake, maximum uric acid concentration 5 mM) amounted to 67.3±4.21 nmol/5 min/mg protein. Besides, the Km on hBCRP [2] is 8.24 mM. For the same compound, the “Secretory versus absorptive transport of uric acid” value at rMdr1a is reported as “no significant difference”.
